Where two headings read alike, the source gives them in different places. Starred links: 1 amine or outer side, 2 acyl side, 3 side chain; linkers in the order of their positions; H or OH if unused. Positions of bridges follow the written chain, without caps; N, C: chain ends. Non-standard residues stand in square brackets, D forms with d. Residues, ends and D or L forms follow the SMILES beside them. *: point of attachment. NMeF = CN[C@@H](Cc1ccccc1)C(=O)O; NMeI = CC[C@H](C)[C@H](NC)C(=O)O; NMeβAla = CN(CCC(=O)[*:2])[*:1]; NMeL = CN[C@@H](CC(C)C)C(=O)O; NMeV = CN[C@H](C(=O)O)C(C)C; NMeA = CN[C@@H](C)C(=O)O; Piperidide = C1CCN(*)CC1; dNMeA = CN[C@H](C)C(=O)O; Sar = CNCC(=O)O; tBu = CC(C)(C)*
Assays:
[1] = Metabolic stability in human hepatic microsome; assay type: in vitro ADME; settings: microsomes
[2] = PAMPA (parallel artificial membrane permeability assay); assay type: in vitro ADME; settings: PAMPA
Procedure, shortened: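 Artificial membrane was 10% (w/v) egg lecithin plus 0.5% (w/v) cholesterol in dodecane on a PVDF filter. A 10 mM DMSO stock was added at 0.5% (v/v) to donor buffer (50 mM MOPSO, pH 6.5, 5.0% glycocholic acid). After 18 h at 37 °C, LC/MS or LC/UV gave donor and acceptor levels for Pe.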

[3] = pH 7.4, human hepatic microsome, NADPH(+), read-out: CL NADPH(+)
[4] = membrane permeation rate (Pe), 50 mM MOPSO buffer pH 6.5 with 5.0% glycocholic acid, 37° C., 18 hours, read-out: iPAMPA Pe

| SMILES | microsomal CLint at 1 uM ([1]; human, pH 7.4, CL NADPH(+)) [µL/min/mg] | Papp at 18 hours, 50 µM ([2]; pH 6.5) [×10⁻⁶ cm/s] | microsomal CLint at 1 uM [1, 3] [µL/min/mg] | Papp at 18 hours, 50 µM [2, 4] [×10⁻⁶ cm/s] |
| --- | --- | --- | --- | --- |
| CC(C)C[C@H]1C(=O)N(C)[C@@H](Cc2ccccc2)C(=O)N[C@@H](C)C(=O)N2CCC[C@H]2C(=O)N(C)[C@@H](CC(C)C)C(=O)N(C)[C@@H](Cc2ccccc2)C(=O)N(C)[C@@H](C(C)C)C(=O)N[C@H](C(=O)N2CCCCC2)CC(=O)N[C@H](C(C)C)C(=O)N[C@@H]([C@@H](C)O)C(=O)N(C)CC(=O)N1C [DP-66] ([dV]T[Sar][NMeL][NMeF]AP[NMeL][NMeF][NMeV]D-Piperidide; lactam N-11) | 69 | 19 |  |  |
| CC[C@H](C)[C@H]1C(=O)N(C)CC(=O)N(C)[C@@H](Cc2ccccc2)C(=O)N[C@H](C(=O)N2CCCCC2)CC(=O)N(C)CCC(=O)N(C)[C@@H](C(C)C)C(=O)N(C)[C@@H](CC(C)C)C(=O)N[C@@H](CC(C)C)C(=O)N[C@@H]([C@@H](C)O)C(=O)N(C)[C@@H](C)C(=O)N[C@@H](Cc2ccccc2)C(=O)N1C [DP-68] ([NMeβAla][NMeV][NMeL]LT[NMeA]F[NMeI][Sar][NMeF]D-Piperidide; lactam N-11) | 35 | 26 |  |  |
| CC[C@H](C)[C@H]1C(=O)N[C@@H]([C@@H](C)O)C(=O)N(C)[C@@H](C)C(=O)N(C)[C@@H](CC(C)C)C(=O)N[C@H](C(=O)N2CCCCC2)CC(=O)N(C)CC(=O)N(C)[C@@H](CC(C)C)C(=O)N[C@@H](CC(C)C)C(=O)N(C)[C@@H](Cc2ccccc2)C(=O)N[C@@H](COC(C)(C)C)C(=O)N(C)[C@@H](Cc2ccccc2)C(=O)N1C [DP-69] ([Sar][NMeL]L[NMeF]S(tBu)[NMeF][NMeI]T[NMeA][NMeL]D-Piperidide; lactam N-11) | 68 | 21 |  |  |
| CC[C@H](C)[C@H]1C(=O)N(C)[C@@H](Cc2ccccc2)C(=O)NCC(=O)N(C)[C@@H](Cc2ccccc2)C(=O)N(C)[C@@H](CC(C)C)C(=O)N(C)[C@@H](CC(C)C)C(=O)N[C@H](C(=O)N2CCCCC2)CC(=O)N[C@H](C(C)C)C(=O)N[C@@H]([C@@H](C)O)C(=O)N(C)[C@@H](C)C(=O)N1C [DP-72] ([dV]T[NMeA][NMeI][NMeF]G[NMeF][NMeL][NMeL]D-Piperidide; lactam N-10) | 58 | 27 |  |  |
| CC[C@H](C)[C@H]1C(=O)N[C@@H](C)C(=O)N[C@H](C(=O)N2CCCCC2)CC(=O)N(C)[C@@H](C)C(=O)N[C@@H]([C@@H](C)O)C(=O)N(C)[C@@H](C)C(=O)N(C)[C@@H](C(C)C)C(=O)N[C@@H](Cc2ccccc2)C(=O)N(C)CC(=O)N(C)[C@@H](CC(C)C)C(=O)N1C [DP-73] ([NMeA]T[NMeA][NMeV]F[Sar][NMeL][NMeI]AD-Piperidide; lactam N-10) | 30 | 5.4 |  |  |
| CC[C@H](C)[C@H]1C(=O)NCC(=O)N(C)[C@@H](Cc2ccccc2)C(=O)N(C)[C@@H](Cc2ccccc2)C(=O)N(C)[C@@H](CC(C)C)C(=O)N(C)[C@@H](CC(C)C)C(=O)N[C@H](C(=O)N2CCCCC2)CC(=O)N(C)[C@H](C)C(=O)N[C@@H]([C@@H](C)O)C(=O)N(C)[C@@H](C)C(=O)N1C [DP-74] ([dNMeA]T[NMeA][NMeI]G[NMeF][NMeF][NMeL][NMeL]D-Piperidide; lactam N-10) | 118 | 29 |  |  |
| CC[C@H](C)[C@H]1C(=O)N(C)[C@@H](CC(C)C)C(=O)N[C@H](C(=O)N2CCCCC2)CC(=O)N(C)CC(=O)N[C@@H]([C@@H](C)O)C(=O)N(C)[C@@H](C)C(=O)N(C)[C@@H](C(C)C)C(=O)N[C@@H](Cc2ccccc2)C(=O)N(C)CC(=O)N[C@@H](C)C(=O)N1C [DP-75] ([Sar]T[NMeA][NMeV]F[Sar]A[NMeI][NMeL]D-Piperidide; lactam N-10) | 27 | 3.3 |  |  |
| CC[C@H](C)[C@H]1C(=O)N(C)[C@@H](C)C(=O)N[C@H](C(=O)N2CCCCC2)CC(=O)N(C)CC(=O)N[C@@H](COC(C)(C)C)C(=O)N(C)CC(=O)N(C)[C@@H](CC(C)C)C(=O)N[C@@H]([C@@H](C)O)C(=O)N(C)[C@@H](Cc2ccccc2)C(=O)N(C)[C@@H](CC(C)C)C(=O)N1C [DP-76] ([Sar]S(tBu)[Sar][NMeL]T[NMeF][NMeL][NMeI][NMeA]D-Piperidide; lactam N-10) | 27 | 16 |  |  |
| CC[C@H](C)[C@H]1C(=O)N[C@H](C(=O)N2CCCCC2)CC(=O)N[C@H](C)C(=O)N(C)[C@@H](Cc2ccccc2)C(=O)N(C)[C@@H](CC(C)C)C(=O)N[C@@H]([C@@H](C)O)C(=O)N(C)CC(=O)N(C)[C@@H](CC(C)C)C(=O)N[C@@H](COC(C)(C)C)C(=O)N1C [DP-77] ([dA][NMeF][NMeL]T[Sar][NMeL]S(tBu)[NMeI]D-Piperidide; lactam N-9) | 33 | 21 |  |  |
| CC(C)C[C@H]1C(=O)N(C)[C@@H](Cc2ccccc2)C(=O)N(C)[C@@H](CC(C)C)C(=O)N[C@H](C(=O)N2CCCCC2)CC(=O)N[C@H](C(C)C)C(=O)N[C@@H](C)C(=O)N[C@@H]([C@@H](C)O)C(=O)N(C)[C@@H](C)C(=O)N[C@@H](Cc2ccccc2)C(=O)N1C [DP-78] ([dV]AT[NMeA]F[NMeL][NMeF][NMeL]D-Piperidide; lactam N-9) | 57 | 38 |  |  |
| CC(C)C[C@H]1C(=O)NCC(=O)N[C@H](C(=O)N2CCCCC2)CC(=O)N(C)[C@@H](C)C(=O)N[C@@H]([C@@H](C)O)C(=O)N(C)[C@@H](C)C(=O)N(C)[C@@H](Cc2ccccc2)C(=O)N[C@@H](COC(C)(C)C)C(=O)N(C)[C@@H](Cc2ccccc2)C(=O)N1C [DP-79] ([NMeA]T[NMeA][NMeF]S(tBu)[NMeF][NMeL]GD-Piperidide; lactam N-9) | 145 | 28 |  |  |
| CC(C)C[C@H]1C(=O)N(C)[C@@H](Cc2ccccc2)C(=O)NCC(=O)N[C@H](C(=O)N2CCCCC2)CC(=O)N(C)CCC(=O)N[C@@H]([C@@H](C)O)C(=O)N(C)[C@@H](C)C(=O)N[C@@H](COC(C)(C)C)C(=O)N(C)[C@@H](Cc2ccccc2)C(=O)N1C [DP-80] ([NMeβAla]T[NMeA]S(tBu)[NMeF][NMeL][NMeF]GD-Piperidide; lactam N-9) | 43 | 12 |  |  |
| CC[C@H](C)[C@H]1C(=O)N[C@H](C(=O)N2CCCCC2)CC(=O)N(C)[C@H](C)C(=O)N(C)[C@@H](Cc2ccccc2)C(=O)N(C)[C@@H](CC(C)C)C(=O)N[C@@H]([C@@H](C)O)C(=O)N(C)CC(=O)N[C@@H](COC(C)(C)C)C(=O)N(C)[C@@H](CC(C)C)C(=O)N1C [DP-81] ([dNMeA][NMeF][NMeL]T[Sar]S(tBu)[NMeL][NMeI]D-Piperidide; lactam N-9) | 38 | 25 |  |  |
| CC[C@H](C)[C@H]1C(=O)N[C@@H](C)C(=O)N[C@H](C(=O)N2CCCCC2)CC(=O)N[C@H](C)C(=O)N[C@@H](Cc2ccccc2)C(=O)N(C)[C@@H](CC(C)C)C(=O)N[C@@H](CC(C)C)C(=O)N[C@@H](Cc2ccccc2)C(=O)N2CCC[C@H]2C(=O)N[C@@H]([C@@H](C)O)C(=O)N[C@@H](COC(C)(C)C)C(=O)N(C)CC(=O)N1C [DP-88] ([dA]F[NMeL]LFPTS(tBu)[Sar][NMeI]AD-Piperidide; lactam N-12) | 32 | 13 |  |  |
| CC[C@H](C)[C@H]1C(=O)N[C@@H](CC(C)C)C(=O)NCC(=O)N(C)[C@@H](CC(C)C)C(=O)N[C@@H](Cc2ccccc2)C(=O)N[C@@H]([C@@H](C)O)C(=O)N(C)[C@@H](C)C(=O)N[C@H](C(=O)N2CCCCC2)CC(=O)N(C)[C@@H](C)C(=O)N[C@@H](Cc2ccccc2)C(=O)N(C)[C@@H](C(C)C)C(=O)N[C@@H](CC(C)C)C(=O)N1C [DP-89] ([NMeA]F[NMeV]L[NMeI]LG[NMeL]FT[NMeA]D-Piperidide; lactam N-12) | 58 | 23 |  |  |
| CC[C@H](C)[C@H]1C(=O)N(C)[C@@H](C)C(=O)N(C)[C@@H](CC(C)C)C(=O)N[C@@H](COC(C)(C)C)C(=O)N(C)[C@@H](CC(C)C)C(=O)N[C@H](C(=O)N2CCCCC2)CC(=O)N(C)[C@@H](C)C(=O)N(C)[C@@H](Cc2ccccc2)C(=O)N[C@@H](C)C(=O)N(C)[C@@H](CC(C)C)C(=O)N[C@@H]([C@@H](C)O)C(=O)N[C@@H](Cc2ccccc2)C(=O)N1C [DP-90] ([NMeA][NMeF]A[NMeL]TF[NMeI][NMeA][NMeL]S(tBu)[NMeL]D-Piperidide; lactam N-12) |  |  | 30 | 9.1 |
| CC[C@H](C)[C@H]1C(=O)NCC(=O)N(C)[C@@H](CC(C)C)C(=O)N[C@@H](CC(C)C)C(=O)N[C@H](C(=O)N2CCCCC2)CC(=O)N(C)CCC(=O)N(C)[C@@H](C)C(=O)N[C@@H](CC(C)C)C(=O)N[C@@H]([C@@H](C)O)C(=O)N2CCC[C@H]2C(=O)N[C@@H](Cc2ccccc2)C(=O)N(C)[C@@H](Cc2ccccc2)C(=O)N1C [DP-91] ([NMeβAla][NMeA]LTPF[NMeF][NMeI]G[NMeL]LD-Piperidide; lactam N-12) | 58 | 20 |  |  |
| CC[C@H](C)[C@H]1C(=O)N[C@@H](C)C(=O)N(C)[C@@H](CC(C)C)C(=O)N[C@@H](COC(C)(C)C)C(=O)N(C)[C@@H](CC(C)C)C(=O)N[C@H](C(=O)N2CCCCC2)CC(=O)N(C)CCC(=O)N[C@@H](Cc2ccccc2)C(=O)N(C)[C@@H](Cc2ccccc2)C(=O)N(C)[C@@H](CC(C)C)C(=O)N[C@@H]([C@@H](C)O)C(=O)N(C)[C@@H](C)C(=O)N1C [DP-92] ([NMeβAla]F[NMeF][NMeL]T[NMeA][NMeI]A[NMeL]S(tBu)[NMeL]D-Piperidide; lactam N-12) |  |  | 29 | 26 |
